This note sets out measurements from patent publication US20230099344A1, “COMPOUNDS AND METHODS FOR THE TARGETED DEGRADATION OF IRAK-4” (Arvinas Operations, Inc., priority 2021, published 2023).

Common to all, as to assay type: cell-based
For assay [1], the system named is IL6. Briefly: LPS stimulated IL6 inhibition assay in PBMC. As to conditions: Homo sapiens, PBMC, 24 h, human PBMCs, LPS stimulation, compound overnight, IL6 by MSD after 24 hrs; for Dmax: read-out: LPS Stim IL6 inhibition Dmax; for IC50: read-out: LPS stim IL6 inhibition IC50. Here is the method: (§1) IL-1β, LPS, or R848 Stimulated IL6 Inhibition and IL-1β Stimulated IL8 Inhibition Assay
(§2) Human PBMC cells were seeded at 2.0×10^6 cells/mL, treated with compound overnight, and dosed with the EC50 concentration of each stimulant (either IL-1B. LPS, or R848) was determined for each donor. After 24 hrs, media was collected and analyzed by MSD for IL6 and/or IL8 levels.

For assay [2], the system named is IL6. Put plainly: R848 stimulated IL6 inhibition assay in PBMC. The note with it: PBMC, human PBMCs, R848 stimulation, compound overnight, IL6 by MSD after 24 hrs; for Dmax: Homo sapiens, 24 h, read-out: R848 stim IL6 inhibition Dmax; for IC50: read-out: R848 stim IL6 inhibition IC50. The protocol:
as §1, §2

The target of assay [3] is T1, IRAK-4 (Homo sapiens, UniProt Q9NWZ3).
T1 sequence (Q9NWZ3 1-460): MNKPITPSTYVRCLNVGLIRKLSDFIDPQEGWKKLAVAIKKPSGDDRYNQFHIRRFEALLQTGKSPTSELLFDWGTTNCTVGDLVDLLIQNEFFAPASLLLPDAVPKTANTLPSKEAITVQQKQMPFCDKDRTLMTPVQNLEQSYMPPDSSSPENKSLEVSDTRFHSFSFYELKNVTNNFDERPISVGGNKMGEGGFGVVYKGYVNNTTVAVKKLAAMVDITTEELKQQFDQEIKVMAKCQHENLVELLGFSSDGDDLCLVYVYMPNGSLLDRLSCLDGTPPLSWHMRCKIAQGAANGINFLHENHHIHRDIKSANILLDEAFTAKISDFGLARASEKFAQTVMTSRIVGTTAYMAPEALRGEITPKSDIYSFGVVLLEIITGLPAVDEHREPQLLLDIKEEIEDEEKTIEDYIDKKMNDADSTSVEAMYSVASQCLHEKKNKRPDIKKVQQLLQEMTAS
Briefly: IRAK-4 ELISA, PBMC degradation. On the set-up: endogenous in cells; host or cells: PBMC. The note with it: treated overnight. The essentials:
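ELISA quantification of cellular IRAK-4 after compound treatment overnight; PBMC were plated at 2×10^6/ml, OCI-Ly10 at 1×10^6/ml.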

Structures are written as SMILES.

With `COc1cc(N2CC(F)(CN3CCC(n4cc5cc(NC(=O)c6cnn7cccnc67)c(OCC6CC6)cc5n4)CC3)C2)cc2c1C(=O)N(C1CCC(=O)NC1=O)C2=O` (centres unmarked) [Example 240], in assay [1], the Dmax is 80 to 90% and the IC50 is 50 to 100 nM. Moreover, in assay [2], the Dmax is at least 90% and the half-maximal inhibitory concentration (IC50) was 10 to 50 nM. In assay [3], the DC50 was below 1 nM, the Dmax was 80 to 90% and the “PBMC DC90” value was “A (A represents a DC90 value <10.0 nM)”.
As for `COc1cc(N2CC(F)(CN3CCC(n4cc5cc(NC(=O)c6cnn7cccnc67)c(OC(C)C)nc5n4)CC3)C2)cc2c1C(=O)N(C1CCC(=O)NC1=O)C2=O` (centres unmarked) [Example 241], in assay [1], the IC50 is at least 100 nM. Moreover, in assay [2], the Dmax fell in the range of 80 to 90% and the IC50 lay in the range of 10 to 50 nM. Further, in assay [3], the 50% degradation concentration (DC50) was 1 to 5 nM; the Dmax lay within 70 to 80%; the “PBMC DC90” value was “B (B represents a DC90 value ≥10.0 nM and <25.0 nM)”.
With `O=C1CCC(N2C(=O)c3ccc(N4CC(F)(CN5CCC(n6cc7cc(NC(=O)c8cnn9cccnc89)c(N8CCC(N9CCC9)CC8)cc7n6)CC5)C4)cc3C2=O)C(=O)N1` (centres unmarked) [Example 243], in assay [1], the Dmax was below 70% and the IC50 fell in the range of 10 to 50 nM. Further, in assay [2], the Dmax is at least 90% and the IC50 is 10 to 50 nM. In assay [3], the DC50 was 5 to 10 nM, the Dmax is 80 to 90% and the “PBMC DC90” value is “D (D represents a DC90 value ≥50 nM)”.
As to `O=C1CCC(N2Cc3ccc(N4CC(F)(CN5CCC(n6cc7cc(NC(=O)c8cnn9cccnc89)c(OCC8CC8)cc7n6)CC5)C4)cc3C2=O)C(=O)N1` (centres unmarked) [Example 245], in assay [1], the Dmax fell in the range of 80 to 90% and the IC50 was 10 to 50 nM. For the same compound, in assay [2], the Dmax was at least 90% and the 50% inhibitory concentration (IC50) is below 10 nM. Besides, in assay [3], the 50% degradation concentration (DC50) was in the range of 1 to 5 nM, the Dmax was 70 to 80% and the “PBMC DC90” value is “A (A represents a DC90 value <10.0 nM)”.
Regarding `COc1c(N2CC(F)(CN3CCC(n4cc5cc(NC(=O)c6cnn7cccnc67)c(OCC6CC6)cc5n4)CC3)C2)ccc2c1C(=O)N(C1CCC(=O)NC1=O)C2=O` (centres unmarked) [Example 246], in assay [1], the Dmax lay in the range of 70 to 80% and the IC50 is below 10 nM. Besides, in assay [2], the Dmax is at least 90% and the IC50 is below 10 nM. Besides, in assay [3], the DC50 lay within 5 to 10 nM; the Dmax is below 70%; the “PBMC DC90” value was “B (B represents a DC90 value ≥10.0 nM and <25.0 nM)”.
In the case of `O=C1CCC(N2C(=O)c3ccc(N4CCCC5(CN(CCN6CCC(n7cc8cc(NC(=O)c9cnn%10cccnc9%10)c(OCC9CC9)cc8n7)CC6)C5)C4)cc3C2=O)C(=O)N1` (centres unmarked) [Example 248], in assay [1], the Dmax is below 70% and the IC50 fell in the range of 10 to 50 nM. Besides, in assay [2], the Dmax is at least 90% and the half-maximal inhibitory concentration (IC50) fell in the range of 10 to 50 nM. Also, in assay [3], the DC50 lay in the range of 1 to 5 nM, the Dmax is below 70% and the “PBMC DC90” value is reported as “A (A represents a DC90 value <10.0 nM)”.
On to `O=C1CCC(N2C(=O)c3ccc(N4CCC5(CC4)CN(CCN4CCC(n6cc7cc(NC(=O)c8cnn9cccnc89)c(OCC8CC8)cc7n6)CC4)C5)cc3C2=O)C(=O)N1` (centres unmarked) [Example 249], for which, in assay [1], the Dmax is below 70% and the IC50 was at least 100 nM. Moreover, in assay [2], the Dmax was in the range of 80 to 90% and the IC50 was in the range of 10 to 50 nM. Besides, in assay [3], the DC50 fell in the range of 1 to 5 nM, the Dmax is at least 90% and the “PBMC DC90” value is reported as “A (A represents a DC90 value <10.0 nM)”.
Regarding `O=C1CCC(N2Cc3c(ccc(N4CC(F)(CN5CCC(n6cc7cc(NC(=O)c8cnn9cccnc89)c(OCC8CC8)cc7n6)CC5)C4)c3F)C2=O)C(=O)N1` (centres unmarked) [Example 250], in assay [1], the Dmax is below 70% and the IC50 was at least 100 nM. Further, in assay [2], the Dmax fell in the range of 80 to 90% and the IC50 was 10 to 50 nM. Moreover, in assay [3], the DC50 lay within 1 to 5 nM; the Dmax was 80 to 90%; the “PBMC DC90” value is “B (B represents a DC90 value ≥10.0 nM and <25.0 nM)”.
On to `O=C1CCC(N2Cc3c(ccc(N4CC(F)(CN5CCC(n6cc7cc(NC(=O)c8cnn9cccnc89)c(OCC(F)F)cc7n6)CC5)C4)c3F)C2=O)C(=O)N1` (centres unmarked) [Example 251], for which, in assay [1], the Dmax is below 70% and the IC50 fell in the range of 50 to 100 nM. In assay [2], the Dmax was 80 to 90% and the IC50 lay within 10 to 50 nM. For the same compound, in assay [3], the DC50 is 1 to 5 nM, the Dmax was in the range of 80 to 90% and the “PBMC DC90” value is given as “A (A represents a DC90 value <10.0 nM)”.
